Measurements: patent publication US10183936B2, “Hepatitis B core protein allosteric modulators” (priority 2014, dated 2019)

Tests used:
[1] = tested on: HBV viral production in AD38 cells; experiment: Viral load production in AD38 cells by quantitative PCR of the HBV core sequence in supernatant; type: cell-based; details: Hepatitis B virus, 144 h; 10 μM compound, 6 days at 37° C., viral load in supernatant compared against DMSO control wells; read-out: AD38 Viral Load (CpAM/DMSO %) at 10 μM
Experimental: (§1) Example 56: Assay Measuring Activity of Compounds on Viral Production in and on Viability of AD38 Cells
(§2) AD38 cells were then re-suspended with 10 mL of Treatment Medium and counted. Wells of a collagen coated 96-well NUNC microtiter plate were seeded at 50,000/well in 180 μL of Treatment Medium, and 20 μL of in treatment media with either 10% DMSO (Control) or a 10× solution of compound in 10% DMSO was added. Plates were incubated for 6 days at 37° C.
Viral load production was assayed by quantitative PCR of the core sequence. Briefly, 5 μL of clarified supematant was added to a PCR reaction mixture that contained forward primers HBV-f 5′-CTGTGCCTTGGGTGGCTTT-3′, Reverse primers HBV-r 5′-[…]-3′ and Fluorescent TaqMan™ Probes HBV-probe 5′-FAM/AGCTCCAAA/ZEN/[…]/3IABkFQ-3′ in Quanta Biosciences PerfeCTa® qPCR Toughmix®, and was subsequently on an Applied Biosystems VIIA7 in a final volume of 20 μL. The PCR mixture was incubated at 45° C. for 5 minutes, then 95° C. for 10 min, followed by 40 cycles of 10 seconds at 95° C. and 20 seconds at 60° C. Viral load was quantitated against known standards by using ViiA™ 7 Software. Viral load in the supematant from wells with treated cells were compared against viral load in supernatant from DMSO control wells (≥3 per plate).

[2] = tested on: AD38 cells; experiment: Viability of AD38 cells (Promega CellTiter-Glo) at the end of compound treatment; type: cell-based; details: 10 μM compound, 6 days, luminescence normalized against DMSO control wells (controls being 100%)
Experimental: as §1, §2
At the end of compound treatment period cell viability was assessed using a Promega CellTiter-Glo protocol. All supernatant was removed the previously treated 96-well microtiter plate, and 50 μL Tetracycline-free treatment medium (DMEM/F12 (1:1), lx Pen/step (cat#: 30-002-CL, Mediatech, Inc), with 2% FBS, Tet-system approved (cat#: 631106, Clontech), and 1% DMSO was added back to each well. Another 50 μL of CellTiter-Glo reagent solution (Promega, G7573) was then added at room temperature and the contents mixed for 2 minutes on an orbital shaker to induce cell lysis. This was followed by incubation at room temperature for 10 minutes to stabilize the luminescent signal. The luminescence was recorded for 0.2 seconds per well on a Tecan multimode platereader (Infinite M1000 pro). The luminescent signal from each well was normalized against that of untreated (DMSO) control wells. All results were reported percent viability (with controls being 100%).

## O=C(NCCc1ccc(-c2ccccc2)cc1)c1ccc2c(c1)NC(=O)c1ccccc1S2(=O)=O [Compound 1618]
[1]
  activity at 10 µM: 0%
[2]
  AD38 Viability Normalized Result (CPAM/DMSO %) at 10 μM: 44%

## O=C(NCCc1cncnc1)c1ccc2c(c1)NC(=O)c1ccccc1S2(=O)=O [Compound 1457]
[1]
  activity at 10 µM: 28%
[2]
  AD38 Viability Normalized Result (CPAM/DMSO %) at 10 μM: 92%

## O=C(Nc1cccc(-c2ccccc2)c1)c1ccc2c(c1)NC(=O)c1ccccc1N2Cc1ccccc1 [Compound 1484]
[1]
  activity at 10 µM: 26%
[2]
  AD38 Viability Normalized Result (CPAM/DMSO %) at 10 μM: 100%

## O=C(NCCc1cncs1)c1ccc2c(c1)NC(=O)c1ccccc1[S+]2[O-] (stereo not shown) [Compound 1527]
[1]
  activity at 10 µM: 19%
[2]
  AD38 Viability Normalized Result (CPAM/DMSO %) at 10 μM: 116%

## O=C1Nc2cc(S(=O)(=O)Nc3cncnc3)ccc2[S+]([O-])c2ccccc21 (stereo not shown) [Compound 1506]
[1]
  activity at 10 µM: 72%
[2]
  AD38 Viability Normalized Result (CPAM/DMSO %) at 10 μM: 85%

## O=C(Nc1ncc(-c2ccccc2)s1)c1ccc2c(c1)NC(=O)c1cc(F)ccc1S2 [Compound 1481]
[1]
  activity at 10 µM: 46%
[2]
  AD38 Viability Normalized Result (CPAM/DMSO %) at 10 μM: 100%

## O=C(NCCc1cncs1)c1ccc2c(c1)NC(=O)c1ccc(F)cc1S2 [Compound 1403]
[1]
  activity at 10 µM: 15%
[2]
  AD38 Viability Normalized Result (CPAM/DMSO %) at 10 μM: 82%

## O=C(NCc1cncnc1)c1ccc2c(c1)NC(=O)c1ccccc1O2 [Compound 1595]
[1]
  activity at 10 µM: 3%
[2]
  AD38 Viability Normalized Result (CPAM/DMSO %) at 10 μM: 108%

## O=C(NC(Cc1nnc[nH]1)c1ccccc1)c1ccc2c(c1)NC(=O)c1ccccc1S2 (stereo not shown) [Compound 1552]
[1]
  activity at 10 µM: 64%
[2]
  AD38 Viability Normalized Result (CPAM/DMSO %) at 10 μM: 93%

## O=C(NCc1cccnc1)c1ccc2c(c1)NC(=O)c1ccc(F)cc1S2 [Compound 1365]
[1]
  activity at 10 µM: 2%
[2]
  AD38 Viability Normalized Result (CPAM/DMSO %) at 10 μM: 105%

## CCCCCCCCNC(=O)c1ccc2c(c1)NC(=O)c1ccccc1S2 [Compound 1152]
[1]
  activity at 10 µM: 1%
[2]
  AD38 Viability Normalized Result (CPAM/DMSO %) at 10 μM: 45%

## O=C(NCCc1ccc(-n2ccnn2)cc1)c1ccc2c(c1)NC(=O)c1ccccc1S2 [Compound 1266]
[1]
  activity at 10 µM: 1%
[2]
  AD38 Viability Normalized Result (CPAM/DMSO %) at 10 μM: 74%

## CCN1c2ccc(C(=O)NCCc3cccnc3)cc2NC(=O)c2ccccc21 [Compound 1523]
[1]
  activity at 10 µM: 1%
[2]
  AD38 Viability Normalized Result (CPAM/DMSO %) at 10 μM: 70%

## O=C1Nc2cc(COCCc3ccccc3)ccc2Sc2ccccc21 [Compound 1501, 8-(phenethoxymethyl) dibenzo [b,f] [1,4] thiazepin-11(10H)-one]
[1]
  activity at 10 µM: 37%
[2]
  AD38 Viability Normalized Result (CPAM/DMSO %) at 10 μM: 71%

## N#Cc1ccc(CCNC(=O)c2ccc3c(c2)NC(=O)c2ccccc2S3)cc1 [Compound 1120]
[1]
  activity at 10 µM: 7%
[2]
  AD38 Viability Normalized Result (CPAM/DMSO %) at 10 μM: 94%

## O=C(Nc1cccc(-c2ccccc2)c1)c1ccc2c(c1)NC(=O)c1ccccc1[S+]2[O-] (stereo not shown) [Compound 1375]
[1]
  activity at 10 µM: 11%
[2]
  AD38 Viability Normalized Result (CPAM/DMSO %) at 10 μM: 89%

## O=C(Nc1ccncc1)c1ccc2c(c1)NC(=O)c1cc(F)ccc1S2 [Compound 1330]
[1]
  activity at 10 µM: 41%
[2]
  AD38 Viability Normalized Result (CPAM/DMSO %) at 10 μM: 109%

## O=C(NCCc1ccccc1)Nc1ccc2c(c1)NC(=O)c1ccccc1S2 [Compound 1224, 1-(11-oxo-10, 11-dihydrodibenzo [b,f] [1,4]thiazepin-8-yl)-3-phenethylurea]
[1]
  activity at 10 µM: 3%
[2]
  AD38 Viability Normalized Result (CPAM/DMSO %) at 10 μM: 65%

## COc1ccccc1CNC(=O)c1ccc2c(c1)NC(=O)c1ccccc1S2 [Compound 1159]
[1]
  activity at 10 µM: 8%
[2]
  AD38 Viability Normalized Result (CPAM/DMSO %) at 10 μM: 92%

## CNC(=O)c1ccc2c(c1)Sc1ccc(C(=O)NCCc3ccccc3)cc1NC2=O [Compound 1280, N^3-methyl-11-oxo-N^8-phenethyl-10, 11-dihydrodibenzo [b,f] [1,4] thiazepine-3,8-dicarboxamide]
[1]
  activity at 10 µM: 74%
[2]
  AD38 Viability Normalized Result (CPAM/DMSO %) at 10 μM: 94%

## O=C1Nc2cc(S(=O)(=O)Nc3ccc(F)cc3)ccc2Sc2ccccc21 [Compound 1413]
[1]
  activity at 10 µM: 92%
[2]
  AD38 Viability Normalized Result (CPAM/DMSO %) at 10 μM: 78%

## O=C(NCCc1ccc(-n2cnnc2)cc1)c1ccc2c(c1)NC(=O)c1ccccc1S2 [Compound 1267]
[1]
  activity at 10 µM: 77%
[2]
  AD38 Viability Normalized Result (CPAM/DMSO %) at 10 μM: 93%

## CC(Cc1cccc(O)c1)NC(=O)c1ccc2c(c1)NC(=O)c1ccccc1S2 (stereo not shown) [Compound 1177]
[1]
  activity at 10 µM: 47%
[2]
  AD38 Viability Normalized Result (CPAM/DMSO %) at 10 μM: 118%

## COc1ccc(CNC(=O)c2ccc3c(c2)NC(=O)c2ccccc2S3)cc1 [Compound 1161]
[1]
  activity at 10 µM: 1%
[2]
  AD38 Viability Normalized Result (CPAM/DMSO %) at 10 μM: 99%

## COC(=O)c1cccc(-c2cccc(NC(=O)c3ccc4c(c3)NC(=O)c3cc(F)ccc3S4)c2)c1 [Compound 1422, Methyl 3′-(2-fluoro-11-oxo-10, 11-dihydrodibenzo [b,f] [1,4]thiazepine-8-carboxamido)-[1, 1′-biphenyl]-3-carboxylate]
[1]
  activity at 10 µM: 64%
[2]
  AD38 Viability Normalized Result (CPAM/DMSO %) at 10 μM: 95%

## CN(C)C(=O)c1ccc2c(c1)Sc1ccc(C(=O)NCCc3ccccc3)cc1NC2=O [Compound 1281, N^3,N^3-dimethyl-11-oxo-N^8-phenethyl-10, 11-dihydrodibenzo [b,f] [1,4] thiazepine-3,8-dicarboxamide]
[1]
  activity at 10 µM: 29%
[2]
  AD38 Viability Normalized Result (CPAM/DMSO %) at 10 μM: 86%

## O=C(NCCN1CCOCC1)c1ccc2c(c1)NC(=O)c1ccccc1S2 [Compound 1175]
[1]
  activity at 10 µM: 30%
[2]
  AD38 Viability Normalized Result (CPAM/DMSO %) at 10 μM: 123%

## O=C(NCc1ccccc1F)c1ccc2c(c1)NC(=O)c1ccccc1S2 [Compound 1167]
[1]
  activity at 10 µM: 57%
[2]
  AD38 Viability Normalized Result (CPAM/DMSO %) at 10 μM: 124%

## O=C(Nc1ncc(-c2ccccc2)o1)c1ccc2c(c1)NC(=O)c1cc(F)ccc1S2 [Compound 1480]
[1]
  activity at 10 µM: 72%
[2]
  AD38 Viability Normalized Result (CPAM/DMSO %) at 10 μM: 95%

## O=C1Nc2c(cc(F)c(C(=O)NCc3cncs3)c2F)Sc2ccccc21 [Compound 1545]
[1]
  activity at 10 µM: 59%
[2]
  AD38 Viability Normalized Result (CPAM/DMSO %) at 10 μM: 88%

## CCOc1ccccc1CCNC(=O)c1ccc2c(c1)NC(=O)c1ccccc1S2 [Compound 1156]
[1]
  activity at 10 µM: 16%
[2]
  AD38 Viability Normalized Result (CPAM/DMSO %) at 10 μM: 106%

## O=C(NCCc1nnc(-c2ccco2)[nH]1)c1ccc2c(c1)NC(=O)c1ccccc1S2 [Compound 1570]
[1]
  activity at 10 µM: 2%
[2]
  AD38 Viability Normalized Result (CPAM/DMSO %) at 10 μM: 115%

## COC(=O)c1ccccc1-c1cccc(NC(=O)c2ccc3c(c2)NC(=O)c2ccccc2S3(=O)=O)c1 [Compound 1628]
[1]
  activity at 10 µM: 17%
[2]
  AD38 Viability Normalized Result (CPAM/DMSO %) at 10 μM: 138%

## O=C(NCC1CCCC1)c1ccc2c(c1)NC(=O)c1ccccc1S2 [Compound 1193]
[1]
  activity at 10 µM: 4%
[2]
  AD38 Viability Normalized Result (CPAM/DMSO %) at 10 μM: 90%

## O=C(NC[C@@H](CO)c1ccccc1)c1ccc2c(c1)NC(=O)c1ccccc1S2 [Compound 1259]
[1]
  activity at 10 µM: 11%
[2]
  AD38 Viability Normalized Result (CPAM/DMSO %) at 10 μM: 84%

## O=C(NCc1cccc(O)c1)c1ccc2c(c1)NC(=O)c1ccccc1S2 [Compound 1202]
[1]
  activity at 10 µM: 7%
[2]
  AD38 Viability Normalized Result (CPAM/DMSO %) at 10 μM: 107%

## O=C(NCc1cccnc1)c1ccc2c(c1)NC(=O)c1ccccc1N2Cc1ccccc1 [Compound 1493]
[1]
  activity at 10 µM: 51%
[2]
  AD38 Viability Normalized Result (CPAM/DMSO %) at 10 μM: 80%

## O=C(NCC1CCC1)c1ccc2c(c1)NC(=O)c1ccccc1S2 [Compound 1174]
[1]
  activity at 10 µM: 35%
[2]
  AD38 Viability Normalized Result (CPAM/DMSO %) at 10 μM: 109%
